Reference: patent US20250145630A1, “POLYMORPHS OF A PYRIDINYLIMIDAZO[1,2-B]PYRIDAZINE” (Cardurion Pharmaceuticals, Inc., priority 2023, published 2025)

What was measured:
CaMKII = CaMKII inhibitor, US publication no. 20220098207; cited from earlier work
[1] = Dynamic vapor sorption (DVS); format: physicochemical
Description: Approximately 10-20 mg of sample was placed into a mesh vapor sorption balance pan and loaded into a DVS Intrinsic or Advantage dynamic vapor sorption balance by Surface Measurement Systems. The sample was subjected to a ramping profile from 40-90% relative humidity (RH) at 10% increments, maintaining the sample at each step until a stable weight had been achieved (dm/dt 0.004%, minimum step length 30 minutes, maximum step length 200 or 500 minutes) at 25° C. After completion of the sorption cycle, the sample was dried using the same procedure to 0% RH and then a second sorption cycle back to 40% RH. Two cycles were performed. The weight change during the sorption/desorption cycles were plotted, allowing for the hygroscopic nature of the sample to be determined.

[2] = Competitive slurrying of free base Forms A, B and C; format: physicochemical
Description: Competitive slurries were carried out at 20° C. and 60° C. using the following procedure: 1.5 mL slurries of Formula (I) were prepared in t-BME, acetone, ethanol, and 2-Me THF at 60° C. in 2 mL screw cap vials. The slurries were syringe filtered (0.45 μm PTFE filter) after ca. 1 hour to obtain saturated Formula (I) solutions. Ca. 0.6 mL of saturated solution was added to ca. 10 mg of free base Forms A, B, and C to form slurries. The experiments were agitated at either ambient temperature (ca. 20° C.) and 60° C. for 48 h.
After 48 h the slurries were isolated by centrifugation (nylon, 0.22 μm) and analyzed by XRPD. Where mixtures were observed competitive slurrying was continued until mixtures were no longer observed (21 days).

[3] = Seven day stability of Formula (I) Form C; format: physicochemical
[4] = Storage stability of Formula (I) Form C (long-term and accelerated); format: physicochemical; settings: for Chemical Purity Assay: anhydrous; for Crystallinity: to Form C
Description: Formula (I) Form C was evaluated for stability (Table 16 and Table 17). The Form C was stored in polyethylene double bags sealed with Nylon lock ties, and inside a capped polyethylene container at Wilmington PharmaTech Company. The storage conditions were long-term condition 25° C./60% RH, or accelerated condition 40° C./75% RH. The samples were analyzed for appearance, assay, related substances, chiral purity, water content and crystallinity.

[5] = Storage stability of Formula (I) L-tartaric acid Form 2 co-crystal (long-term and accelerated); format: physicochemical; settings: for Chemical Purity Assay: ASFB; for Crystallinity: to Form 2
Description: Formula (I) L-tartaric acid Form 2 co-crystal was evaluated for stability (Table 18 and Table 19). The co-crystal was stored in polyethylene double bags sealed with Nylon lock ties with two (2) 0.5 g silica gel desiccant packets in between, and inside a capped polyethylene container containing four (4) 33 g Silica Gel desiccant packs. The storage conditions were long-term condition 25° C./60% RH or accelerated condition 40° C./75% RH. The samples were analyzed for appearance, assay, related substances, chiral purity, water content and crystallinity.

[6] = as above; format: physicochemical; settings: 25° C./60% RH, 0 months; to Form 2
[7] = ambient temperature and humidity

COc1ccnc(-c2cnc3ccc(-c4ccc(F)c(O[C@@H](C)Cn5cnnn5)c4)nn23)c1C#N [Example 321, (S)-2-(6-(3-((1-(1H-tetrazol-1-yl)propan-2-yl)oxy)-4-fluorophenyl)imidazo[1,2-b]pyridazin-3-yl)-4-methoxynicotinonitrile]
IC50 (CaMKII): < 10 nM

COc1ccnc(-c2cnc3ccc(-c4ccc(F)c(O[C@@H](C)Cn5cnnn5)c4)nn23)c1C#N [Formula (I) Form C, (S)-2-(6-(3-((1-(1H-tetrazol-1-yl)propan-2-yl)oxy)-4-fluorophenyl)imidazo[1,2-b]pyridazin-3-yl)-4-methoxynicotinonitrile]
hygroscopicity by DVS ([1]; 25° C.): slightly hygroscopic | Post-DVS XRPD analysis ([1]; after DVS): Form C was retained | uptake (DVS) ([1]; at 80% RH): 0.3% | Time until Form C was only detected polymorph ([2]; 60° C., 2-Me THF): 2 days | Time until Form C was only detected polymorph ([2]; 60° C., Ethanol): 2 days | Time until Form C was only detected polymorph ([2]; 60° C., acetone): 2 days | Time until Form C was only detected polymorph ([2]; 60° C., t-BME): 15 days | relative stability of free base polymorphs ([2]; all solvents tested, 20° C. and 60° C.): most stable polymorph | Time until Form C was only detected polymorph ([2]; ambient (ca. 20° C.), 2-Me THF): 9 days | Time until Form C was only detected polymorph ([2]; ambient (ca. 20° C.), Ethanol): 8 days | Time until Form C was only detected polymorph ([2]; ambient (ca. 20° C.), acetone): 2 days | Time until Form C was only detected polymorph ([2]; ambient (ca. 20° C.), t-BME): 21 days | HPLC Purity ([3]; 7 day, 25° C./60% RH): 99.0 % area | XRPD Analysis ([3]; 7 day, 25° C./60% RH): Form C | HPLC Purity ([3]; 7 day, 40° C./75% RH): 99.0 % area | XRPD Analysis ([3]; 7 day, 40° C./75% RH): Form C | HPLC Purity ([3]; 7 day, 80° C.): 98.9 % area | XRPD Analysis ([3]; 7 day, 80° C.): Form C | HPLC analysis, change in purity after 7 day stability ([3]; 7 day, all conditions): no loss in purity | XRPD analysis after 7 day stability ([3]; 7 day, all conditions): retained | Input Purity ([3]; before storage): 98.8 % area | Chiral Purity ([4]; 25° C./60% RH, 0 months): >99.9 area % | Description ([4]; 25° C./60% RH, 0 months): Off-white | Related Substances: Impurity #1 ([4]; 25° C./60% RH, 0 months): 0.05% | Related Substances: Impurity #2 ([4]; 25° C./60% RH, 0 months): 0.18% | Total Impurities ([4]; 25° C./60% RH, 0 months): 0.23% | Water ([4]; 25° C./60% RH, 0 months): 0.29% | Chemical Purity Assay ([4]; 25° C./60% RH, 0 months): 100.1 wt % | Crystallinity ([4]; 25° C./60% RH, 0 months): Conforms | Chiral Purity ([4]; 25° C./60% RH, 12 months): >99.9 area % | Description ([4]; 25° C./60% RH, 12 months): Off-white | Related Substances: Impurity #1 ([4]; 25° C./60% RH, 12 months): 0.05% | Related Substances: Impurity #2 ([4]; 25° C./60% RH, 12 months): 0.18% | Total Impurities ([4]; 25° C./60% RH, 12 months): 0.23% | Water ([4]; 25° C./60% RH, 12 months): 0.32% | Chemical Purity Assay ([4]; 25° C./60% RH, 12 months): 99.4 wt % | Crystallinity ([4]; 25° C./60% RH, 12 months): Conforms | Chiral Purity ([4]; 25° C./60% RH, 24 months): >99.9 area % | Description ([4]; 25° C./60% RH, 24 months): Off-white | Related Substances: Impurity #1 ([4]; 25° C./60% RH, 24 months): 0.05% | Related Substances: Impurity #2 ([4]; 25° C./60% RH, 24 months): 0.18% | Total Impurities ([4]; 25° C./60% RH, 24 months): 0.23% | Water ([4]; 25° C./60% RH, 24 months): 0.35% | Chemical Purity Assay ([4]; 25° C./60% RH, 24 months): 99.4 wt % | Crystallinity ([4]; 25° C./60% RH, 24 months): Conforms | B. Unidentified Impurities (RRT: %), first listed ([4]; 40° C./75% RH, 0 months): 0.07% | B. Unidentified Impurities (RRT: %), second listed ([4]; 40° C./75% RH, 0 months): 0.05% | Chiral Purity ([4]; 40° C./75% RH, 0 months): >99.9 area % | Description ([4]; 40° C./75% RH, 0 months): Off-white | Related Substances: Impurity #1 ([4]; 40° C./75% RH, 0 months): 0.09% | Related Substances: Impurity #2 ([4]; 40° C./75% RH, 0 months): 0.19% | Related Substances: Impurity #3 ([4]; 40° C./75% RH, 0 months): <0.05% | Total Impurities ([4]; 40° C./75% RH, 0 months): 0.40% | Water ([4]; 40° C./75% RH, 0 months): 0.36% | Chemical Purity Assay ([4]; 40° C./75% RH, 0 months): 99.6 wt % | Crystallinity ([4]; 40° C./75% RH, 0 months): Conforms | B. Unidentified Impurities (RRT: %), first listed ([4]; 40° C./75% RH, 6 months): 0.06% | B. Unidentified Impurities (RRT: %), second listed ([4]; 40° C./75% RH, 6 months): 0.06% | Chiral Purity ([4]; 40° C./75% RH, 6 months): >99.9 area % | Description ([4]; 40° C./75% RH, 6 months): Off-white | Related Substances: Impurity #1 ([4]; 40° C./75% RH, 6 months): 0.08% | Related Substances: Impurity #2 ([4]; 40° C./75% RH, 6 months): 0.19% | Related Substances: Impurity #3 ([4]; 40° C./75% RH, 6 months): 0.05% | Total Impurities ([4]; 40° C./75% RH, 6 months): 0.44% | Water ([4]; 40° C./75% RH, 6 months): 0.15% | Chemical Purity Assay ([4]; 40° C./75% RH, 6 months): 99.3 wt % | Crystallinity ([4]; 40° C./75% RH, 6 months): Conforms | B. Unidentified Impurities (RRT: %), first listed ([4]; 40° C./75% RH, 12 months): 0.06% | Chiral Purity ([4]; 40° C./75% RH, 12 months): >99.9 area % | Description ([4]; 40° C./75% RH, 12 months): Off-white | Related Substances: Impurity #1 ([4]; 40° C./75% RH, 12 months): 0.08% | Related Substances: Impurity #2 ([4]; 40° C./75% RH, 12 months): 0.19% | Related Substances: Impurity #3 ([4]; 40° C./75% RH, 12 months): <0.05% | Total Impurities ([4]; 40° C./75% RH, 12 months): 0.33% | Water ([4]; 40° C./75% RH, 12 months): 0.49% | Chemical Purity Assay ([4]; 40° C./75% RH, 12 months): 99.6 wt % | Crystallinity ([4]; 40° C./75% RH, 12 months): Conforms

COc1ccnc(-c2cnc3ccc(-c4ccc(F)c(O[C@@H](C)Cn5cnnn5)c4)nn23)c1C#N.COc1ccnc(-c2cnc3ccc(-c4ccc(F)c(O[C@@H](C)Cn5cnnn5)c4)nn23)c1C#N.O.O=C(O)C(O)C(O)C(=O)O.O=C(O)C(O)C(O)C(=O)O [Formula (I) L-Tartaric Acid Form 2]
Chiral Purity ([5]; 25° C./60% RH, 0 months): >99.9 area % | Description ([5]; 25° C./60% RH, 0 months): Off-white | Related Substances: Impurity #1 ([5]; 25° C./60% RH, 0 months): 0.25% | Total Impurities ([5]; 25° C./60% RH, 0 months): 0.25% | Water ([5]; 25° C./60% RH, 0 months): 1.59% | Chemical Purity Assay ([5]; 25° C./60% RH, 0 months): 99.3 wt % | Description ([5]; 25° C./60% RH, 3 months): Off-white | Related Substances: Impurity #1 ([5]; 25° C./60% RH, 3 months): 0.25% | Total Impurities ([5]; 25° C./60% RH, 3 months): 0.25% | Water ([5]; 25° C./60% RH, 3 months): 1.58% | Chemical Purity Assay ([5]; 25° C./60% RH, 3 months): 99.6 wt % | Crystallinity ([5]; 25° C./60% RH, 3 months): Conforms | Chiral Purity ([5]; 25° C./60% RH, 6 months): >99.9 area % | Description ([5]; 25° C./60% RH, 6 months): Off-white | Related Substances: Impurity #1 ([5]; 25° C./60% RH, 6 months): 0.26% | Total Impurities ([5]; 25° C./60% RH, 6 months): 0.26% | Water ([5]; 25° C./60% RH, 6 months): 1.55% | Chemical Purity Assay ([5]; 25° C./60% RH, 6 months): 99.3 wt % | Crystallinity ([5]; 25° C./60% RH, 6 months): Conforms | Chiral Purity ([5]; 40° C./75% RH, 0 months): >99.9 area % | Description ([5]; 40° C./75% RH, 0 months): Off-white | Related Substances: Impurity #1 ([5]; 40° C./75% RH, 0 months): 0.25% | Total Impurities ([5]; 40° C./75% RH, 0 months): 0.25% | Water ([5]; 40° C./75% RH, 0 months): 1.59% | Chemical Purity Assay ([5]; 40° C./75% RH, 0 months): 99.3 wt % | Crystallinity ([5]; 40° C./75% RH, 0 months): Conforms | Description ([5]; 40° C./75% RH, 3 months): Off-white | Related Substances: Impurity #1 ([5]; 40° C./75% RH, 3 months): 0.25% | Total Impurities ([5]; 40° C./75% RH, 3 months): 0.25% | Water ([5]; 40° C./75% RH, 3 months): 1.56% | Chemical Purity Assay ([5]; 40° C./75% RH, 3 months): 99.3 wt % | Crystallinity ([5]; 40° C./75% RH, 3 months): Conforms | Chiral Purity ([5]; 40° C./75% RH, 6 months): >99.9 area % | Description ([5]; 40° C./75% RH, 6 months): Off-white | Related Substances: Impurity #1 ([5]; 40° C./75% RH, 6 months): 0.25% | Total Impurities ([5]; 40° C./75% RH, 6 months): 0.25% | Water ([5]; 40° C./75% RH, 6 months): 1.60% | Chemical Purity Assay ([5]; 40° C./75% RH, 6 months): 100.0 wt % | Crystallinity ([5]; 40° C./75% RH, 6 months): Conforms | Crystallinity [6]: Conforms

COc1ccnc(-c2cnc3ccc(-c4ccc(F)c(O[C@@H](C)Cn5cnnn5)c4)nn23)c1C#N.O=C(O)C(O)C(O)C(=O)O
form conversion on standing [7]: converted to L-tartaric acid co-crystal Form 2
